“And” between values parts separate entries of the source, which are not always exact repeats. Equal values may be shown once. Where a name gives a salt, the structure may show the parent alone.
Experiments:
Parameters in all cases: species or system human
[1] = Synthetic axilla malodor on cotton pads, 10-member panel rating of malodor strength; details: for Class A + Malodor (strength of the axilla malodor, panel score): 0.4 g ethanolic solution with 10% (wt) test compound on malodor pad, 10-member panel after 3 hours; for Class A + Malodor (strength of the axilla malodor, panel score) / 50% DHF/50% Class A (strength of the axilla malodor, panel score): scale 5 overpowering to 1 not detectable; for 50% DHF/50% Class A (strength of the axilla malodor, panel score): test solution 5% (wt) DHF and 5% (wt) Class A compound, after 3 hours
Description: 100 μl of synthetic axilla malodor was placed onto cotton pads. 0.4 g of an ethanolic solution containing 10% (wt) of a test compound identified in Table 1 was placed on each axilla malodor treated cotton pad. Each pad was allowed to dry 15 for minutes, and then evaluated using a 10-member panel after 3 hours. The test cotton pads were randomized, and each panelist was asked to check a box that represented the strength of the axilla malodor using the following scale:
In this example, the MO effect of various mixtures of a Class A MOC compound and a Class B MOC compound (i.e., dihexyl fumarate (“DHF”) as disclosed in Kulka, U.S. Pat. No. 3,074,892) were evaluated using the same test and malodor evaluation procedures as set forth in Example 1. Each test sol ion contained 5% (wt) DHF and 5% (wt) of the Class A compound identified in Table 3. The MOC effect was evaluated as in Example 1.
Various mixtures of OMC (a Class A Compound) and a Class B compound (i.e., various cyclohexyl esters as disclosed in Schleppnik '221) as identified in Table 4 below were made according to the procedure set forth in Example 1. The MOC of each mixture was evaluated using the procedure set forth in Example 1.

[2] = MOC of sweat malodor on fabric swatches; details: Table 6
Description: The following fabric treatment solutions were prepared:
1. A solution of ethanol and Cremophor (a hydrogenated ethoxylated castor oil marketed by BASF Corp., Mount Olive, N.J.) containing 10% (wt) of dihexyl fumarate (DHF).
2. A solution of ethanol and Cremophor containing 10% (wt) of OMC.
3. A solution of ethanol and Cremophor containing 5% (wt) of DHF+5% (wt) OMC.
Five (5) fabric swatches were prepared, and labeled A-E. Swatch A was designated as the control swatch with no malodor. 100 μl of sweat malodor was placed in the middle of swatches B-E. Swatch B was designated as the control swatch for the malodor. The swatches were allowed to equilibrate with the malodor for 20 minutes. Onto swatches C-E, the following solutions were sprayed:
The malodor intensity on the cotton swatches was evaluated as follows:
The malodor intensity on swatch B (Malodor Control) was identified as a 5 (overpoweringly strong) on the scale of 1-5 set forth below at every time point, and the rest of swatches were evaluated based on that standard.

[3] = Tobacco smoke malodor on cotton fabric, 20-member panel; details: 0.4 gram of 5% (wt) OMC in ethanol on smoke-treated cotton fabric; average of 20 panelists; three hours; scale 1-5
Description: (§1) The ability of OMC to reduce the malodor intensity of tobacco smoke, onion, and garlic solutions on cotton fabric was determined.
(§2) Cotton cloth pads were evaluated by 20 panelists to determine how well OMC reduced the perceived odor of tobacco smoke, onion, and garlic solutions on cotton fabric.
(§3) The effect of the test solutions on the garlic or onion odors were evaluated by asking a 20-member panel to rate the intensity of the malodor present on the controls and on the treated fabrics using a scale of 1-5 as shown below three hours after the preparation of each sample. The data are average values from the scores by each of the 20 panelists.
Samples were prepared fresh before each evaluation. Clean pieces of fabric were treated with smoke by placing each fabric piece in a smoked filled environment for 10 minutes. Each piece of fabric was sprayed with 0.4 gram of the 5% (wt) OMC in ethanol test solution set forth above in the garlic and onion example. The treated fabric pieces were left to dry for 15 minutes, and then wrapped in foil.
Controls were prepared from a smoke-treated piece of cloth that was not sprayed with a test solution.
The fabric pieces were evaluated in the same way as described above in the onion and garlic example.

[4] = Onion malodor on cotton fabric, 20-member panel; details: 0.4 g of 5% OMC in ethanol on cotton pad with 2.5% (wt) onion solution; average of 20 panelists; three hours; scale 1-5
Description: as §1, §2
(§4) Samples were prepared fresh before each evaluation. A solution of 2.5% (wt) garlic and a solution of 2.5% (wt) onion were both made using 39C alcohol as the solvent. Briefly, 0.4 g of the garlic and onion solutions were each sprayed onto cotton towel pads (100% cotton, 5×5cm). 0.4 g of a test solution containing 5% OMC in ethanol were then sprayed on the onion and garlic-treated cotton pads. The pads were allowed to dry for 15-20 minutes under a fume hood. Each pad was then placed in a blind coded Petri-dish.
(§5) Controls were prepared from cotton pads, which were treated only with the garlic or onion solution (i.e., no OMC test solution).
as §3

[5] = Garlic malodor on cotton fabric, 20-member panel; details: 0.4 g of 5% OMC in ethanol on cotton pad with 2.5% (wt) garlic solution; average of 20 panelists; three hours; scale 1-5
Description: as §1, §2, §4, §5, §3

SMILES	Class A + Malodor (strength of the axilla malodor, panel score) [1]	50% DHF/50% Class A (strength of the axilla malodor, panel score) [1]	also measured
CCCCCCOC(=O)/C=C/C(=O)OCCCCCC [Dihexyl Fumarate, reference compound]	–	–	10% test (Compound B Alone) malodor score ([1]; 10% Class B compound alone, procedure of Example 1, scale 1-5): 2.6; 5% OMC + 5% Compound B malodor score ([1]; mixture 5% OMC + 5% Class B compound, procedure of Example 1, scale 1-5): 2.3; MOC effect in words, compound alone [2]: had a MOC effect
CCCCCCCCCCOC(=O)/C=C/c1ccccc1 [GR 85 3428]	2.8	3.3	–
C/C(=C\c1ccccc1O)C(=O)OCCC(C)CCc1ccccc1 (centres unmarked) [GR 85-1407]	3.4	3.0	–
CC(C)=CCCC(C)CCOC(=O)/C=C/c1ccccc1O (centres unmarked) [GR 85-2280]	2.9	3.1	–
CC(C)=CCCC(C)CCOC(=O)/C(C#N)=C/c1ccccc1O (centres unmarked) [GR 85-2661]	2.9	2.4	–
COc1ccc(OC)c(/C=C/C(=O)OCCC(C)CCC=C(C)C)c1 (centres unmarked) [GR 85-3260]	3.5	2.9	–
COC(=O)/C(C#N)=C/c1ccccc1 [GR 85-3427]	3.0	3.3	–
CCCCC(CC)COC(=O)/C=C/c1ccccc1 (centres unmarked) [GR 85-3429]	3.3	2.8	–
CC(C)=CCCC(C)CCOC(=O)/C=C/c1ccccc1O[Si](C)(C)C (centres unmarked) [GR 85-3565]	2.7	3.1	–
CCCCC(C)COC(=O)C1=Cc2ccc(OC)cc2CC1 (centres unmarked) [GR 85-6495]	2.8	3.0	–
CCCCC(C)COC(=O)c1cc2ccccc2oc1=O (centres unmarked) [GR 85-6924]	2.9	2.5	–
CCCCC(CC)COC(=O)/C=C/c1ccc(OC)cc1 (centres unmarked) [OMC, Octyl methoxy cinnamate]	2.6	2.3	10% OMC (Alone) malodor score ([1]; 10% OMC alone, run beside the Compound B of that line, scale 1-5): 3.1 and 2.6 and 3.0; MOC effect in words, mixture of Class A and Class B compound versus alone ([1]; axilla malodor test pads, Tables 3 and 4): acts at least additively with the Class B compounds; MOC effect in words, compound alone [2]: had a MOC effect; Malodor intensity, Smoke [3]: 1.8; Malodor intensity, Onion [4]: 2.7; Malodor intensity, Garlic [5]: 2.6
O=C(/C=C/c1ccccc1)OCCc1ccccc1 [PC, Phenylethylcinnamate]	2.2	–	–

— patent US6610648B2, “Malodor counteractant compositions” (Givaudan SA, priority 2000, dated 2003)
